From patent US20170100367A1, “USE OF ERIBULIN IN THE TREATMENT OF CANCER” (priority 2014, published 2017) come the findings set out here.

Molecules are shown by their SMILES.

Data set [1] concerns human breast cancer cell line MDA-MB-231 s.c. xenograft. Nature of the data set: Antitumor effect of capecitabine after eribulin treatment in MDA-MB-231 s.c. xenograft model. The data set is classed as in vivo, nude mice. The settings on record: capecitabine 540 mg/kg QD8 p.o. after eribulin 1.0 mg/kg QD1 i.v.; MDA-MB-231 xenograft; FIG. 1. As for the experimental part: Antitumor Effect of Capecitabine after Eribulin Treatment in Human Breast Cancer Cell Line MDA-MB-231 s.c. Xenograft Models
MDA-MB-231 cells were cultured with RPMI 1640 medium containing 10% (v/v) FBS. Cultured tumor cells were suspended in 50% (v/v) BD Matrigel (BD bioscience, San Jose, Calif.) at a density of 10×10^7 cells/mL for s.c. inoculation into nude mice. A 0.1-mL aliquot of the cell suspension was transplanted subcutaneously into the right flank region of mice. Tumor volumes were calculated according to the following formula: (width [mm]^2×length [mm])/2. Tumor weights were calculated according to the following formula: tumor volume (mm^3)×1 (mg/mm^3). In the MDA-MB-231 xenograft model, when the mean tumor volume reached between 100 and 300 mg (1 mm^3=1 mg) on day 1, nude mice were randomly divided into each group. Control (no treatment); capecitabine, 540 mg/kg, QD8, p.o.; or eribulin, 1.0 mg/kg, QD1, i.v. was administered on day 1. In the eribulin group, eribulin-treated mice were randomly divided into two groups. […] The administration volume (0.1 mL/10 g body weight) was calculated based on the body weight before administration. The tumor volume was measured two times per week. […] The data was analyzed by the Dunnett multiple comparison test to compare two groups (GraphPad Prism version 6.02 (GraphPad Software Inc., La Jolla, Calif.)). […]

Data set [2] in a line: Pharmacokinetics study of carboplatin in tumor after administration of eribulin in MDA-MB-231 s.c. xenograft model. The class given is in vivo, nude mice. The conditions noted are these: for Concentration of Carboplatin in MDA-MB-231 Tumor, AUC (0-8): tumor homogenate. As for the experimental part: Pharmacokinetics Study of Carboplatin in Tumor after Administration of Eribulin in Human Breast Cancer Cell Line MDA-MB-231 s.c. Xenograft Models
Female nude mice, once acclimatised, were subcutaneously injected with 5×10^6 MDA-MB-231 cells in a 1:1 ratio (50 μL each) with matrigel in a volume of 0.1 mL in phosphate buffered saline, on the right flank area using a 26-gauge needle. This ensured that sufficient mice with tumors in the volume range of approximately 200˜300 mm^3 were available for the study. When the tumors reached an average size of approximately 250 mm^3, 30 mice were selected. The study included an initial experiment containing 24 mice. The first group received eribulin mesylate dosed i.v. as a single dose of 3 mg/kg; for a 20 g animal 200 μL of 0.3 mg/mL eribulin mesylate solution was dosed. To control for tumor size, a vehicle control group (vehicle B) consisting of 27 mice, was introduced before carboplatin dosing. The mice in this group were chosen so that their tumor size matches the tumor size of the eribulin mesylate-treated mice group. Vehicle B group was split in 2 groups, first one of 3 mice which received vehicle (saline) i.v. injection and the second group of 24 mice received carboplatin i.v. injection. On day 1 of vehicle B or on day 15 after the treatment of eribulin, 100 mg/kg carboplatin was administered to all mice intravenously and tumor samples were collected under anesthesia at the assigned time points 0.083, 0.25, 0.5, 1, 4, 8, 24, and 48 hours (n=3 for each time point). Tumors were homogenized with 3 times their respective weights of 1×PBS using a Mini Bead Beater-96, and the concentration of carboplatin in each tumor homogenate was analyzed by a validated LC-MS method.
The PK parameters of carboplatin in tumors were calculated using a non-compartmental approach (Pheonix/WinNonlin v. 6.3, Pharsight; Mountain View, Calif.). The time point at which the concentration of carboplatin highest was denoted as tmax. The highest concentration of carboplatin was denoted as Cmax. The observed area under the tumor concentration versus time curve from time zero to the last quantifiable time point (AUC (0-t)) and to infinity (AUC (0-inf)) were calculated using the trapezoidal method. The AUC (0-inf) was calculated as AUC (0-t)+AUC extrap, where AUC extrap represents the extrapolated AUC from the last quantifiable time point (Clast) to infinity, and was calculated as Clast/λZ. Lamda z (λZ), slope of the concentration versus time curve during the terminal phase, was determined by linear regression.
The mean, standard deviation (SD) and percent coefficient of variation (% CV) of tumor concentrations were calculated using Excel 2010 (Microsoft, Redmond, Wash.). The mean, SD, and % CV for the PK parameters of carboplatin were determined in WinNonlin or Excel 2010. […]
An AB Sciex (Foster City, Calif.) API5000 mass spectrometer, with electrospray ionization under positive ion mode, was used for sample analysis. The collision-activated dissociation (CAD) with N2 was used to generate structure characteristic product ions for quantitation.
The peak areas of carboplatin were integrated using Analyst 1.6 (AB Sciex, Foster City, Calif.), and the areas were imported into Watson 7.2 (Thermo Fisher Scientific, Waltham, Mass.). Internal standard, tolbutamide, was added to each sample, excluded blank without IS, however IS was not used for quantitation due to inconsistent instrument response of tolbutamide in all analytical runs. […]

Setting [3] is: eribulin mesylate 3 mg/kg i.v., carboplatin 100 mg/kg i.v. on day 15.

For `CCCCCOC(=O)Nc1nc(=O)n([C@@H]2O[C@H](C)[C@@H](O)[C@H]2O)cc1F` [capecitabine], the “antitumor activity of capecitabine with eribulin pretreatment compared with that without pretreatment” value in data set [1] is “significantly enhanced”.
Regarding `N.N.O=C([O-])C1(C(=O)[O-])CCC1.[Pt+2]` [Carboplatin, carboplatin], the “Concentration of Carboplatin in MDA-MB-231 Tumor, AUC (0-8)” value in data set [2] (Eribulin pretreatment (eribulin mesylate 3 mg/kg i.v. single dose), carboplatin 100 mg/kg i.v. on day 15) turned out to be 50504.02 ng·h/g; in data set [2] (Vehicle B group (no eribulin), carboplatin 100 mg/kg i.v.) it was 36864.98 ng·h/g. In addition, in data set [2] (setting [3]), the “AUC (0-8) of carboplatin in tumor, eribulin pretreatment group relative to Vehicle B group” value is given as “about 1.37 fold”. Also, in data set [2] (setting [3]), the “Cmax of carboplatin in tumor, eribulin pretreatment group relative to Vehicle B group” value is reported as “about 2.20 fold”. The “exposure of carboplatin in tumors” value in data set [2] (eribulin pretreatment group mice, Table 1, FIG. 4) is on record as “high exposure”.
